Assay results as given in patent US12521342B2, “Fast disintegrating tablet” (CUBOPHARM PTY LTD, priority 2017, dated 2026).
Read-outs that look alike come from different tables or passages of the source.

Tests used:
[1] = cited from earlier work
[2] = pig, pH 7.4

Compound	logP [1]	Total rosuvastatin absorbed per minute ([2]; 0.4 mg/1.5 ml) [ng/mL]	Total rosuvastatin absorbed per minute ([2]; 0.8 mg/1.5 ml) [ng/mL]
CNCC(O)c1ccc(O)c(O)c1 (stereo not drawn) [Adrenaline]	−0.5 to −1.2	–	–
CC(C)c1nc(N(C)S(C)(=O)=O)nc(-c2ccc(F)cc2)c1/C=C/[C@@H](O)C[C@@H](O)CC(=O)O [Rosuvastatin]	–	0.6	0.3
